Assay results from PMC5218480 (PLoS ONE, 2017).

System: MV-4-11 cells
Test: Gene expression microarray analysis (Affymetrix PrimeView) and GSEA
Format: cell-based, human
Set-up: RFU PODN (11730768_x_at) / Fold change /veh PODN (11730768_x_at) / RFU LINC00158 (11744669_a_at) / Fold change /veh LINC00158 (11744669_a_at) / RFU DUSP10 (11751237_a_at) / Fold change /veh DUSP10 (11751237_a_at) / RFU ID3 (11757404_x_at) / Fold change /veh ID3 (11757404_x_at) / RFU PLEKHG5 (11737974_s_at) / Fold change /veh PLEKHG5 (11737974_s_at) / RFU LRRC4B (11730491_at) / Fold change /veh LRRC4B (11730491_at) / RFU GIMAP4 (11747438_a_at) / Fold change /veh GIMAP4 (11747438_a_at) / RFU KRT8 (11758183_x_at) / Fold change /veh KRT8 (11758183_x_at) / RFU CNN1 (11734310_a_at) / Fold change /veh CNN1 (11734310_a_at) / RFU VPS37D (11726825_at) / Fold change /veh VPS37D (11726825_at) / RFU C10orf10 (11716522_x_at) / Fold change /veh C10orf10 (11716522_x_at) / RFU KIR2DL2 /// KIR2DL4 /// KIR2DL5A /// KIR2DL5B /// KIR2DS1 /// KIR2DS2 /// KIR2DS3 /// KIR2DS4 /// KIR3DL3 /// KIR3DL3 /// KIR3DS1 (11738374_at) / Fold change /veh KIR2DL2 /// KIR2DL4 /// KIR2DL5A /// KIR2DL5B /// KIR2DS1 /// KIR2DS2 /// KIR2DS3 /// KIR2DS4 /// KIR3DL3 /// KIR3DL3 /// KIR3DS1 (11738374_at) / RFU C1QL1 (11718748_at) / Fold change /veh C1QL1 (11718748_at) / RFU TMPRSS4 (11747572_a_at) / Fold change /veh TMPRSS4 (11747572_a_at) / RFU HAMP (11756126_x_at) / Fold change /veh HAMP (11756126_x_at) / RFU RNFT2 (11725882_a_at) / Fold change /veh RNFT2 (11725882_a_at) / RFU NR4A2 (11747474_a_at) / Fold change /veh NR4A2 (11747474_a_at) / RFU ABCC12 (11746883_a_at) / Fold change /veh ABCC12 (11746883_a_at) / RFU TMEM136 (11760407_x_at) / Fold change /veh TMEM136 (11760407_x_at) / RFU CLDN22 /// WWC2 (11732394_at) / Fold change /veh CLDN22 /// WWC2 (11732394_at) / RFU HLA-DPB1 (11760878_x_at) / Fold change /veh HLA-DPB1 (11760878_x_at) / RFU SPINT1 (11716480_a_at) / Fold change /veh SPINT1 (11716480_a_at) / RFU GAP43 (11754022_s_at) / Fold change /veh GAP43 (11754022_s_at) / RFU A4GNT (11735810_at) / Fold change /veh A4GNT (11735810_at) / RFU PRB3 (11715151_x_at) / Fold change /veh PRB3 (11715151_x_at) / RFU TUBB4B (11761932_at) / Fold change /veh TUBB4B (11761932_at) / RFU CAPN14 (11732068_a_at) / Fold change /veh CAPN14 (11732068_a_at) / RFU TMCC2 (11721928_a_at) / Fold change /veh TMCC2 (11721928_a_at) / RFU IRGQ (11745062_a_at) / Fold change /veh IRGQ (11745062_a_at) / RFU FAM174B (11720279_a_at) / Fold change /veh FAM174B (11720279_a_at) / RFU TMPRSS4 (11748680_a_at) / Fold change /veh TMPRSS4 (11748680_a_at) / RFU FAM212B (11763350_a_at) / Fold change /veh FAM212B (11763350_a_at) / RFU PLEKHG5 (11743358_a_at) / Fold change /veh PLEKHG5 (11743358_a_at) / RFU ZSCAN30 (11745921_a_at) / Fold change /veh ZSCAN30 (11745921_a_at) / RFU CMKLR1 (11741424_a_at) / Fold change /veh CMKLR1 (11741424_a_at) / RFU LOC101060620 /// MAPK8IP1 (11723275_at) / Fold change /veh LOC101060620 /// MAPK8IP1 (11723275_at) / RFU SPTSSB (11747773_x_at) / Fold change /veh SPTSSB (11747773_x_at) / RFU PRSS12 (11739890_at) / Fold change /veh PRSS12 (11739890_at) / RFU BIN1 (11741810_x_at) / Fold change /veh BIN1 (11741810_x_at) / RFU WNT11 (11732464_a_at) / Fold change /veh WNT11 (11732464_a_at) / RFU C10orf10 (11716521_a_at) / Fold change /veh C10orf10 (11716521_a_at) / RFU C5orf56 (11738089_at) / Fold change /veh C5orf56 (11738089_at) / RFU CYB561 (11721691_x_at) / Fold change /veh CYB561 (11721691_x_at) / RFU ANKRD19P (11752326_a_at) / Fold change /veh ANKRD19P (11752326_a_at) / RFU OR2T12 /// OR2T33 /// OR2T8 (11738714_s_at) / Fold change /veh OR2T12 /// OR2T33 /// OR2T8 (11738714_s_at) / RFU VCAN (11748164_a_at) / Fold change /veh VCAN (11748164_a_at) / RFU JSRP1 (11732532_at) / Fold change /veh JSRP1 (11732532_at) / RFU KRTAP10-11 (11738290_x_at) / Fold change /veh KRTAP10-11 (11738290_x_at) / RFU MYO3A (11730013_a_at) / Fold change /veh MYO3A (11730013_a_at) / RFU EBF3 (11725865_a_at) / Fold change /veh EBF3 (11725865_a_at) / RFU CAMK2N1 (11719241_x_at) / Fold change /veh CAMK2N1 (11719241_x_at) / RFU C5orf56 (11738088_a_at) / Fold change /veh C5orf56 (11738088_a_at) / RFU OLFML3 (11715873_a_at) / Fold change /veh OLFML3 (11715873_a_at) / RFU LOC100653217 /// NTM (11731650_a_at) / Fold change /veh LOC100653217 /// NTM (11731650_a_at) / RFU MAPK11 (11762145_a_at) / Fold change /veh MAPK11 (11762145_a_at) / RFU FIZ1 (11724087_x_at) / Fold change /veh FIZ1 (11724087_x_at) / RFU OASL (11726364_x_at) / Fold change /veh OASL (11726364_x_at) / RFU SOX15 (11748057_x_at) / Fold change /veh SOX15 (11748057_x_at) / RFU CD79A (11719716_a_at) / Fold change /veh CD79A (11719716_a_at) / RFU HIST1H1D (11736915_at) / Fold change /veh HIST1H1D (11736915_at) / RFU CASKIN2 (11723855_a_at) / Fold change /veh CASKIN2 (11723855_a_at) / RFU LOC730098 (11760151_x_at) / Fold change /veh LOC730098 (11760151_x_at) / RFU OR4N2 (11742367_at) / Fold change /veh OR4N2 (11742367_at) / RFU PRRT2 (11749266_a_at) / Fold change /veh PRRT2 (11749266_a_at) / RFU SNX32 (11753110_a_at) / Fold change /veh SNX32 (11753110_a_at) / RFU CDHR5 (11726645_a_at) / Fold change /veh CDHR5 (11726645_a_at) / RFU RCAN1 (11760418_a_at) / Fold change /veh RCAN1 (11760418_a_at) / RFU FAM167A (11723789_a_at) / Fold change /veh FAM167A (11723789_a_at) / RFU FAM26E (11764081_at) / Fold change /veh FAM26E (11764081_at) / RFU ISYNA1 (11749810_s_at) / Fold change /veh ISYNA1 (11749810_s_at) / RFU ACY1 (11761880_at) / Fold change /veh ACY1 (11761880_at) / RFU 11764098_at / Fold change /veh 11764098_at / RFU SAMD14 (11745864_x_at) / Fold change /veh SAMD14 (11745864_x_at) / RFU NPB (11741838_a_at) / Fold change /veh NPB (11741838_a_at) / RFU TMPRSS6 (11731388_a_at) / Fold change /veh TMPRSS6 (11731388_a_at) / RFU KRTAP10-2 (11738614_at) / Fold change /veh KRTAP10-2 (11738614_at) / RFU ARHGAP8 /// PRR5-ARHGAP8 (11727945_x_at) / Fold change /veh ARHGAP8 /// PRR5-ARHGAP8 (11727945_x_at) / RFU KRTAP5-7 /// NADSYN1 (11734609_at) / Fold change /veh KRTAP5-7 /// NADSYN1 (11734609_at) / RFU RASL12 (11751679_a_at) / Fold change /veh RASL12 (11751679_a_at) / RFU CDKN2B (11736163_a_at) / Fold change /veh CDKN2B (11736163_a_at) / RFU PRF1 (11729649_at) / Fold change /veh PRF1 (11729649_at) / RFU, ZNF638 /// ZNF638-IT1 / Fold change vs veh, ZNF638 /// ZNF638-IT1 / RFU, PANK3 / Fold change vs veh, PANK3 / RFU, SH3YL1 / Fold change vs veh, SH3YL1 / RFU, ZEB2 / Fold change vs veh, ZEB2 / RFU, NRIP1 / Fold change vs veh, NRIP1 / RFU, PTTG1IP / Fold change vs veh, PTTG1IP / RFU, CAPN2 / Fold change vs veh, CAPN2 / RFU, MED14 / Fold change vs veh, MED14 / RFU, SNORA58 / Fold change vs veh, SNORA58 / RFU, C1orf63 / Fold change vs veh, C1orf63 / RFU, LRRFIP1 / Fold change vs veh, LRRFIP1 / RFU, NDUFAF7 / Fold change vs veh, NDUFAF7 / RFU, SLC12A2 / Fold change vs veh, SLC12A2 / RFU, IBTK / Fold change vs veh, IBTK / RFU, ESF1 / Fold change vs veh, ESF1 / Fold change vs veh, TMEM50B / RFU, TAOK1 / Fold change vs veh, TAOK1 / RFU, ACBD3 / Fold change vs veh, ACBD3 / RFU, TMA16 / Fold change vs veh, TMA16 / RFU, RWDD3 / Fold change vs veh, RWDD3 / RFU, BCAT1 / Fold change vs veh, BCAT1 / RFU, EDEM3 / Fold change vs veh, EDEM3 / RFU, TMEM33 / Fold change vs veh, TMEM33 / RFU, WDR75 / Fold change vs veh, WDR75 / RFU, AHCTF1 / Fold change vs veh, AHCTF1 / RFU, TFRC / Fold change vs veh, TFRC / RFU, ZDHHC17 / Fold change vs veh, ZDHHC17 / RFU, NOM1 / Fold change vs veh, NOM1 / RFU, ARL8B / Fold change vs veh, ARL8B / RFU, ZBTB11 / Fold change vs veh, ZBTB11 / RFU, TAMM41 / Fold change vs veh, TAMM41 / RFU, KIAA1704 /// LOC100996395 / Fold change vs veh, KIAA1704 /// LOC100996395 / RFU, ING1 / Fold change vs veh, ING1 / RFU, TRMT61B / Fold change vs veh, TRMT61B / RFU, FUBP3 / Fold change vs veh, FUBP3 / RFU, TP53 / Fold change vs veh, TP53 / RFU, TNKS2 / Fold change vs veh, TNKS2 / RFU, ZFP14 / Fold change vs veh, ZFP14 / RFU, ACTR2 / Fold change vs veh, ACTR2 / RFU, PPP3R1 / Fold change vs veh, PPP3R1 / RFU, PIK3R1 / Fold change vs veh, PIK3R1 / RFU, HNRNPA1 / Fold change vs veh, HNRNPA1 / RFU, RNF170 / Fold change vs veh, RNF170 / RFU, ZNF28 / Fold change vs veh, ZNF28 / RFU, RNGTT / Fold change vs veh, RNGTT / RFU, OGT / Fold change vs veh, OGT / RFU, BRD1 / Fold change vs veh, BRD1 / RFU, MARS / Fold change vs veh, MARS / RFU, ZNF655 / Fold change vs veh, ZNF655 / RFU, FAHD1 / Fold change vs veh, FAHD1 / RFU, BDP1 / Fold change vs veh, BDP1 / RFU, LRRCC1 / Fold change vs veh, LRRCC1 / RFU, ARID1A / Fold change vs veh, ARID1A / RFU, ZNF146 / Fold change vs veh, ZNF146 / RFU, ZNF330 / Fold change vs veh, ZNF330 / RFU, GPN3 / Fold change vs veh, GPN3 / RFU, C9orf123 / Fold change vs veh, C9orf123 / RFU, N4BP2L2 / Fold change vs veh, N4BP2L2 / RFU, ARFIP1 / Fold change vs veh, ARFIP1 / RFU, FAM179B / Fold change vs veh, FAM179B / RFU, BCL10 / Fold change vs veh, BCL10 / RFU, UHRF1BP1L / Fold change vs veh, UHRF1BP1L / RFU, BET1 / Fold change vs veh, BET1 / RFU, CNOT2 / Fold change vs veh, CNOT2 / RFU, ZNF268 / Fold change vs veh, ZNF268 / Fold change vs veh, ZNF507 / RFU, DGCR2 / Fold change vs veh, DGCR2 / RFU, WDSUB1 / Fold change vs veh, WDSUB1 / Fold change vs veh, HSP90B1 /// MIR3652 / RFU, ADSS / Fold change vs veh, ADSS / RFU, GK / Fold change vs veh, GK / RFU, ZNF148 / Fold change vs veh, ZNF148 / RFU, TAF9 / Fold change vs veh, TAF9 / RFU, SLC1A5 / Fold change vs veh, SLC1A5 / RFU, SLMO2 / Fold change vs veh, SLMO2 / RFU, ABCC4 / Fold change vs veh, ABCC4 / RFU, LOC101060439 /// RAP1B / Fold change vs veh, LOC101060439 /// RAP1B / RFU, RFX7 / Fold change vs veh, RFX7 / RFU, GTPBP10 / Fold change vs veh, GTPBP10 / RFU, CNEP1R1 / Fold change vs veh, CNEP1R1 / RFU, BIVM-ERCC5 /// ERCC5 / Fold change vs veh, BIVM-ERCC5 /// ERCC5 / RFU, ILF3 / Fold change vs veh, ILF3 / RFU 11762660_at / Fold change /veh 11762660_at / RFU VCAN (11757783_s_at) / Fold change /veh VCAN (11757783_s_at) / RFU DDX43 (11728927_at) / Fold change /veh DDX43 (11728927_at) / RFU KRT8 (11758188_x_at) / Fold change /veh KRT8 (11758188_x_at) / RFU NKD1 (11759106_at) / Fold change /veh NKD1 (11759106_at) / RFU SRD5A1 (11742802_a_at) / Fold change /veh SRD5A1 (11742802_a_at) / RFU TPSAB1 /// TPSB2 (11721975_s_at) / Fold change /veh TPSAB1 /// TPSB2 (11721975_s_at) / RFU GSTM3 (11746129_a_at) / Fold change /veh GSTM3 (11746129_a_at) / RFU IL23R (11737362_x_at) / Fold change /veh IL23R (11737362_x_at) / RFU TMEM51 (11727254_a_at) / Fold change /veh TMEM51 (11727254_a_at) / RFU PIWIL2 (11732686_x_at) / Fold change /veh PIWIL2 (11732686_x_at) / RFU ORM1 (11744905_x_at) / Fold change /veh ORM1 (11744905_x_at) / RFU CCDC152 (11743942_at) / Fold change /veh CCDC152 (11743942_at) / RFU ECM1 (11717891_a_at) / Fold change /veh ECM1 (11717891_a_at) / RFU IL23R (11748794_a_at) / Fold change /veh IL23R (11748794_a_at) / RFU TNFAIP8L3 (11732012_x_at) / Fold change /veh TNFAIP8L3 (11732012_x_at) / RFU MBOAT4 (11741988_at) / Fold change /veh MBOAT4 (11741988_at) / RFU 11764193_at / Fold change /veh 11764193_at / RFU TMEM53 (11763286_at) / Fold change /veh TMEM53 (11763286_at) / RFU MAGEB2 (11727129_at) / Fold change /veh MAGEB2 (11727129_at) / RFU TMEM200A (11744735_a_at) / Fold change /veh TMEM200A (11744735_a_at) / RFU CCDC152 (11751479_a_at) / Fold change /veh CCDC152 (11751479_a_at) / RFU FAM211A (11726209_a_at) / Fold change /veh FAM211A (11726209_a_at) / RFU RGS16 (11746705_a_at) / Fold change /veh RGS16 (11746705_a_at) / RFU VCAN (11755009_s_at) / Fold change /veh VCAN (11755009_s_at) / RFU RHOB (11743442_s_at) / Fold change /veh RHOB (11743442_s_at) / RFU RGS16 (11720943_a_at) / Fold change /veh RGS16 (11720943_a_at) / RFU RGS16 (11720944_at) / Fold change /veh RGS16 (11720944_at) / RFU, VPS4B / Fold change vs veh, VPS4B / RFU, CREB1 / Fold change vs veh, CREB1 / RFU, DNAJC13 / Fold change vs veh, DNAJC13 / RFU, GNAQ / Fold change vs veh, GNAQ / RFU, CDK5R1 / Fold change vs veh, CDK5R1 / RFU, ZRANB3 / Fold change vs veh, ZRANB3 / RFU, CUL4A / Fold change vs veh, CUL4A / RFU, CCNY / Fold change vs veh, CCNY / RFU, UFL1 / Fold change vs veh, UFL1 / RFU, COG3 / Fold change vs veh, COG3 / RFU, DIAPH2 / Fold change vs veh, DIAPH2 / RFU, SKA2 / Fold change vs veh, SKA2 / RFU, AFF3 / Fold change vs veh, AFF3 / RFU, LMF1 / Fold change vs veh, LMF1 / RFU, IPO11 / Fold change vs veh, IPO11 / RFU, DFFB / Fold change vs veh, DFFB / RFU, FOXP1 / Fold change vs veh, FOXP1 / RFU, CARD8 / Fold change vs veh, CARD8 / RFU, STRN3 / Fold change vs veh, STRN3 / RFU, ADK / Fold change vs veh, ADK / RFU, RASSF2 / Fold change vs veh, RASSF2 / RFU, WIPF1 / Fold change vs veh, WIPF1 / RFU, LARP1B / Fold change vs veh, LARP1B / RFU, RASA1 / Fold change vs veh, RASA1 / RFU, RB1 / Fold change vs veh, RB1 / RFU, PPFIA1 / Fold change vs veh, PPFIA1 / RFU, MAT2A / Fold change vs veh, MAT2A / RFU, CCT5 / Fold change vs veh, CCT5 / RFU, WDR92 / Fold change vs veh, WDR92 / RFU, CUX1 / Fold change vs veh, CUX1 / RFU, TTC7A / Fold change vs veh, TTC7A / RFU, TMEM135 / Fold change vs veh, TMEM135 / RFU, DEPTOR / Fold change vs veh, DEPTOR / RFU, CPM / Fold change vs veh, CPM / RFU, DNAJB6 / Fold change vs veh, DNAJB6 / RFU, CACNA2D3 / Fold change vs veh, CACNA2D3 / RFU, DTX4 / Fold change vs veh, DTX4 / RFU, TFCP2 / Fold change vs veh, TFCP2 / RFU, GMCL1 /// GMCL1P1 / Fold change vs veh, GMCL1 /// GMCL1P1 / RFU, AEBP2 / Fold change vs veh, AEBP2 / RFU, SNHG1 /// SNORD22 /// SNORD25 /// SNORD26 /// SNORD27 /// SNORD28 /// SNORD29 /// SNORD31 / Fold change vs veh, SNHG1 /// SNORD22 /// SNORD25 /// SNORD26 /// SNORD27 /// SNORD28 /// SNORD29 /// SNORD31 / Fold change (Aza/veh), C12orf56 (ProbeSet 11735607_a_at) / Fold change (ACY-1035/veh), C12orf56 (ProbeSet 11735607_a_at) / Fold change (Aza/veh), FGFR1OP (ProbeSet 11751329_s_at) / Fold change (ACY-1035/veh), FGFR1OP (ProbeSet 11751329_s_at) / Fold change (Aza/veh), VPS36 (ProbeSet 11739960_a_at) / Fold change (ACY-1035/veh), VPS36 (ProbeSet 11739960_a_at) / RFU SYPL1 (11715823_x_at) / Fold change /veh SYPL1 (11715823_x_at) / RFU IGFBP7 (11715501_s_at) / Fold change /veh IGFBP7 (11715501_s_at) / RFU REEP3 (11722064_at) / Fold change /veh REEP3 (11722064_at) / RFU IGLL1 (11728026_x_at) / Fold change /veh IGLL1 (11728026_x_at): dose or concentration left out as unconfirmed
Settings: MV-4-11 cells, 48 hours

How did the “RFU VCAN (11748164_a_at)” value turn out when `Nc1ccc(-c2cccs2)cc1NC(=O)c1ccc2c(c1)cc(C1CC1)n2CCN1CCOCC1` [ACY-1035] was run?
Its value is 5.33 RFU.
